Assay results published in patent US4160829A, “Antibacterial 1,2,4-oxadiazolylacetamido cephalosporins” (Gist-Brocades N.V., priority 1972, dated 1979).
In brackets after ≈: the same amount, converted by molar mass.

What was measured:
Bac.Subt.ATCC 6633 = test: agar serial dilution test; type: cell-based, Bacillus subtilis; settings: agar serial dilution, 24 hours, 37° C.
Staph.aureus A 321 = test: agar serial dilution test; type: cell-based, Staphylococcus aureus; settings: agar serial dilution, 24 hours, 37° C.
Staph.aureus A 2000 [1] = test: agar serial dilution test; type: cell-based, Staphylococcus aureus; settings: agar serial dilution, 24 hours, 37° C.
Staph.aureus A 2001 [2] = test: agar serial dilution test; type: cell-based, Staphylococcus aureus; settings: agar serial dilution, 24 hours, 37° C.
Strep.haem. A 266 = test: agar serial dilution test; type: cell-based, Streptococcus haemolyticus; settings: Streptococcus; agar serial dilution, 24 hours, 37° C.; read-out: minimal inhibitory concentration (MIC)
Strep. faec. L 80 = test: agar serial dilution test; type: cell-based, Streptococcus faecalis; settings: agar serial dilution, 24 hours, 37° C.
Bruc.melit. A 488 = test: microbe, parasite or virus in culture; type: cell-based; settings: Brucella melitensis, 24 h, read-out: minimal inhibitory concentration (MIC)
Past.multo. A 723 = test: agar serial dilution test; type: cell-based, Pasteurella multocida; settings: agar serial dilution, 24 hours, 37° C.
Salm.dubl. P 43 = test: agar serial dilution test; type: cell-based, Salmonella dublin; settings: agar serial dilution, 24 hours, 37° C.
Salm.typh. R 127 = test: agar serial dilution test; type: cell-based; settings: 24 hours, 37° C.
Esch.coli U 20 = test: agar serial dilution test; type: cell-based, Escherichia coli; settings: Escherichia coli, U20; agar serial dilution, 24 hours, 37° C.; read-out: minimal inhibitory concentration (MIC)
Shig.equir. T 3 = test: agar serial dilution test; type: cell-based; settings: 24 hours, 37° C.
Pseud.aerug. H 10 = test: agar serial dilution test; type: cell-based; settings: agar serial dilution, 24 hours, 37° C.
Pseud.aerug. 2396 = test: agar serial dilution test; type: cell-based; settings: agar serial dilution, 24 hours, 37° C.
[3] = tested on: Pseud.aerug. Wyeth A 1058; test: agar serial dilution test; type: cell-based; settings: agar serial dilution, 24 hours, 37° C.
Prot.rettg. A 821 = test: agar serial dilution test; type: cell-based, Proteus rettgeri; settings: agar serial dilution, 24 hours, 37° C.
Prot.mirab. H 3 = test: agar serial dilution test; type: cell-based, Proteus mirabilis; settings: Proteus mirabilis, 24 h, read-out: minimal inhibitory concentration (MIC), agar serial dilution, 24 hours, 37° C.
Prot.mirab. L 93 = test: agar serial dilution test; type: cell-based, Proteus mirabilis; settings: Proteus mirabilis; agar serial dilution, 24 hours, 37° C.; read-out: minimal inhibitory concentration (MIC)
Prot.mirab. A 1200 = test: agar serial dilution test; type: cell-based, Proteus mirabilis; settings: agar serial dilution, 24 hours, 37° C.
Prot.morg. 2241 = test: agar serial dilution test; type: cell-based; settings: agar serial dilution, 24 hours, 37° C.
Staph.aureus A 355 [4] = test: micro serial dilution test; type: cell-based, Staphylococcus aureus; settings: micro serial dilution (in brackets), about 18 hours, 30° C. or 37° C.; penicillinase-producing strain
Staph.aureus A 2000 [5] = test: micro serial dilution test; type: cell-based, Staphylococcus aureus; settings: micro serial dilution (in brackets), about 18 hours, 30° C. or 37° C.
Staph.aureus A 2001 [6] = test: micro serial dilution test; type: cell-based, Staphylococcus aureus; settings: micro serial dilution (in brackets), about 18 hours, 30° C. or 37° C.
Haem.infl. A 1030 = test: micro serial dilution test; type: cell-based; settings: micro serial dilution (in brackets), about 18 hours, 30° C. or 37° C.
acute toxicity in mice = settings: mouse, in vivo, ip; mice (Swiss), one intraperitoneal administration
Description: (a) For sodium 7-[(3-methyl-1,2,4-oxadiazol-5-yl)-acetamido]-cephalosporanate (as prepared in Example 10), the acute toxicity was determined in mice (Swiss) with one intraperitoneal administration. The LD50 appeared to be >6000 mg/kg (Cephalotin-LD50 >6000 mg/kg).

[7] = tested on: Staph. aureus pen.resistant; test: protection test; type: in vivo; settings: Staphylococcus aureus, sc
Proteus rettgeri = test: protection test; type: in vivo; settings: Providencia rettgeri, sc; protection test, s.c.; read-out: ED50
Klebsiella pneumoniae = test: protection test; type: in vivo; settings: ip, protection test, i.p., read-out: ED50
Escherichia coli = test: protection test; type: in vivo; settings: ip
in vivo = test: in vivo; parameters: species or system rabbits; settings: rabbit, im, 50 mg/kg
Description: Blood levels of the above mentioned test compound and of cephalotin were determined after an intramuscular administration of 50 mg/kg of these compounds in an aqueous solution in rabbits. After half an hour for the compound of Example 10, a value of 38.3 μg/ml was found and for cephalotin 33.9 μg/ml. In urine, 35.9% of the administered compound of Example 10 was retrieved, while in the case of cephalotin 22.2% was retrieved within six hours.

Staph.aureus A 355 [8] = test: agar serial dilution test; settings: agar serial dilution, 24 hours, 37° C.; penicillinase-producing strain

CC(=O)OCC1=C(C(=O)O)N2C(=O)[C@@H](NC(=O)Cc3nc(C)no3)[C@H]2SC1 [Example 10, 7-[(3-methyl-1,2,4-oxadiazol-5-yl)-acetamido]-cephalosporanic acid]
minimal inhibitory concentration (MIC) (Bac.Subt.ATCC 6633): 0.25 µg/mL (≈ 0.631 µM) | minimal inhibitory concentration (MIC) (Staph.aureus A 321): 0.25 µg/mL (≈ 0.631 µM) | minimal inhibitory concentration (MIC) (Staph.aureus A 2000 [1]): 1 µg/mL (≈ 2.52 µM) | minimal inhibitory concentration (MIC) (Staph.aureus A 2001 [2]): 1 µg/mL (≈ 2.52 µM) | MIC (Strep.haem. A 266): 0.03 µg/mL (≈ 0.0757 µM) | minimal inhibitory concentration (MIC) (Strep. faec. L 80): 50 µg/mL (≈ 126 µM) | MIC (Bruc.melit. A 488): 6 µg/mL (≈ 15.1 µM) | minimal inhibitory concentration (MIC) (Past.multo. A 723): 1.5 µg/mL (≈ 3.78 µM) | minimal inhibitory concentration (MIC) (Salm.dubl. P 43): 3 µg/mL (≈ 7.57 µM) | minimal inhibitory concentration (MIC) (Salm.typh. R 127): 3 µg/mL (≈ 7.57 µM) | MIC (Esch.coli U 20): 6 µg/mL (≈ 15.1 µM) | minimal inhibitory concentration (MIC) (Shig.equir. T 3): 3 µg/mL (≈ 7.57 µM) | minimal inhibitory concentration (MIC) (Pseud.aerug. H 10): > 100 µg/mL | minimal inhibitory concentration (MIC) (Pseud.aerug. 2396): > 100 µg/mL | minimal inhibitory concentration (MIC) [3]: > 100 µg/mL | minimal inhibitory concentration (MIC) (Prot.rettg. A 821): 3 µg/mL (≈ 7.57 µM) | MIC (Prot.mirab. H 3): 12.5 µg/mL (≈ 31.5 µM) | MIC (Prot.mirab. L 93): 1.5 µg/mL (≈ 3.78 µM) | minimal inhibitory concentration (MIC) (Prot.mirab. A 1200): 6 µg/mL (≈ 15.1 µM) | minimal inhibitory concentration (MIC) (Prot.morg. 2241): 50 µg/mL (≈ 126 µM) | minimal inhibitory concentration (MIC) (Staph.aureus A 355 [4]): 0.6 µg/mL (≈ 1.51 µM) | minimal inhibitory concentration (MIC) (Staph.aureus A 2000 [5]): 0.9 µg/mL (≈ 2.27 µM) | minimal inhibitory concentration (MIC) (Staph.aureus A 2001 [6]): 0.3 µg/mL (≈ 0.757 µM) | minimal inhibitory concentration (MIC) (Haem.infl. A 1030): 125 µg/mL (≈ 315 µM) | LD50 (acute toxicity in mice): > 6000 mg/kg | ED50 [7]: 31 mg/kg | ED50 (Proteus rettgeri): 1.25 mg/kg | ED50 (Klebsiella pneumoniae): 2.3 mg/kg | ED50 (Escherichia coli): 120 mg/kg | concentration at 0.5 h (in vivo): 38300 ng/mL | minimal inhibitory concentration (MIC) (Staph.aureus A 355 [8]): 1 µg/mL (≈ 2.52 µM)
